Laboratory results: patent US11154482B2, “Peptide, composition and method for anti-hair graying” (Renorigin Innovation Institute Co., Ltd., priority 2020, dated 2021)

Columns and labels:
Bleaching of hair = conditions: 7.5% hydrogen peroxide, 400 μg/ml peptide, 14 days
Description: FIG. 4 provides photographs of the hairs decolored with 7.5% hydrogen peroxide. Top panel, 7.5% hydrogen peroxide only; bottom panel, 7.5% hydrogen peroxide and incubated with 400 μg/ml peptide of the invention.
Hairs were treated with 7.5% hydrogen peroxide with or without peptide of SEQ ID NO: 1 for 14 days.

[1] = system: B16F10 murine melanoma cells; assay: Protection against hydrogen peroxide-induced oxidative stress injury (MTT cell viability assay); format: cell-based; conditions: 30 μM hydrogen peroxide for 24 h, then 50 μg/ml peptide and hydrogen peroxide for 48 h
Description: (§1) B16F10 murine melanoma cells (American Type Culture Collection, Manassas, Va., USA) were cultured in Dulbecco's modified Eagle's medium (DMEM) (Thermo Scientific, Barrington, Ill., USA) with 10% fetal bovine serum (FBS) (Gibco, Grand Island, N.Y., USA) and penicillin/streptomycin (100 IU/[…]) in a humidified atmosphere containing 5% CO2 at 37° C.
(§2) Cells (1×10^3) were seeded in 96-well plates. After treatment with hydrogen peroxide and peptide of SEQ ID NO: 1, MTT was added to a final concentration of 0.5 mg/ml and incubated for 4 h at 37° C. to allow MTT reduction. The formazan crystals were then dissolved in 10% sodium dodecyl sulfate (SDS) containing 0.01 N HCl and absorbance was measured at the dual wavelengths of 570 and 630 nm with a spectrophotometer (VersaMax; Molecular Devices, Silicon Valley, Calif., USA).
Cells were exposed to 30 μM hydrogen peroxide for 24 h and then treated with 50 μg/ml peptide of SEQ ID NO: 1 and hydrogen peroxide for 48 h.

[2] = system: B16F10 murine melanoma cells; assay: Prevention of hydrogen peroxide-induced oxidative stress injury (MTT cell viability assay); format: cell-based; conditions: 50 μg/ml peptide for 24 h, then 0.5 mM hydrogen peroxide for 2 h
Description: as §1, §2
Cells were treated with 50 μg/ml peptide of SEQ ID NO: 1 for 24 h and then exposed to 0.5 mM hydrogen peroxide for 2 h.

DPPH assay = format: physicochemical; conditions: 50 μg/ml peptide, 0.2 mM DPPH, 16 h in the dark at room temperature, absorbance 515 nm
Description: 50 μg/ml peptide of SEQ ID NO: 1 was treated with 0.2 mM DPPH for 16 h. Data are represented as the means±SD from three independent experiments. ***p<0.001.
50 μg/ml peptide of SEQ ID NO: 1 was added in 96-well plates and incubated with 0.2 mM DPPH. Plates incubated in the dark for 16 hours at room temperature. After 16 h, the absorbance was measured at 515 nm using an automated plat reader (molecular devices).

For FKCRRWQWRMKKL [Peptide of SEQ ID NO: 1], the “hair color after hydrogen peroxide immersion” value (Bleaching of hair) was “hair still had bright yellow”, the “hydrogen peroxide-induced stress injury (MTT assay), protection” value [1] was “attenuates hydrogen peroxide-induced stress injury” and the “hydrogen peroxide-induced stress injury (MTT assay), prevention” value [2] was “attenuates hydrogen peroxide-induced stress injury”. The “DPPH radical scavenging capacity” value (DPPH assay) was “significantly decreased DPPH radical scavenging capacity”.
